For assay [1], the system named is Cyto c release from mitochondria. Nature of the assay: Selenite-induced Cytochrome c release from mitochondria in HEK-293 cells. Type of assay: cell-based. The settings on record: Homo sapiens, HEK293, compound 2 h then selenite 15 μM 4 h, means±SD (n=3). The method, then: One of the ways cell apoptosis is activated is by release of Cytochrome c (Cyto c) from the mitochondria into cytosol. […] Cyto c released to the cytosol may be analyzed by immunoblotting using Cyto c-specific antibodies.
Cells treated with apoptosis inducers in the absence or presence of the tested compounds were harvested, washed twice with PBS, pH 7.4 and gently resuspended at 6 mg/ml in ice-cold buffer (100 mM KCl, 2.5 mM MgCl2, 250 mM sucrose, 20 mM HEPES/KOH pH 7.5, 0.2 mM EDTA, 1 mM dithiothreitol, 1 μg/ml leupeptin, […] and 0.1 mM PMSF) containing 0.025% digitonin and incubated for 10 min on ice. Samples were centrifuged at 10,000×g (relative centrifugal force—RCF) at 4° C. for 5 min to obtain supernatants (cytosolic extracts free of mitochondria) and pellet (fraction that contains mitochondria). Cytochrome c released to the cytosol was analyzed by immunoblotting using Cytochrome c-specific antibodies. Anti-VDAC1 and anti-GAPDH antibodies were used to verify that the cytosolic extracts are mitochondria-free.
c. Cytochrome c (Cyto c) release was determined as described above in Methods (Cytochrome c release from mitochondria). Briefly, to assess Cyto c release, cells were incubated on ice for 10 min with 0.025% digitonin, centrifuged, and the pellet (mitochondria—Mito) and supernatants (cytosol—Cytos) were subjected to SDS-PAGE and immunoblotting, using anti-Cyto c, antibodies. Anti-VDAC1 and anti-GAPDH antibodies were used to verify that the cytosolic extracts are mitochondria-free. The results of Cyto c release from the mitochondria as induced by selenite are presented as immunoblots, with the cytosolic and mitochondrial fractions confirmed by immunoblotting of GAPDH (glyceraldehyde-3-phosphate dehydrogenase) and VDAC1, respectively, in the FIG. 15d. The data are presented as percent inhibition. The results shown correspond to means±SD (n=3). The closed circle (●) indicates VBIT-4 (compound of Formula 1), the open circle (◯) indicates compound of Formula 10 (AKOS-022), and an open square (□) indicates VBIT-3 (compound of Formula 2).
d. […]

Assay [2] has as its system 5XFAD transgenic mice with AD-like disease. In words: Radial-arm water maze learning and memory task in 5XFAD transgenic mice. Type of assay: in vivo, mouse. To be noted: 5XFAD mice, 20 mg/kg in drinking water for 4 months, tested at six months of age.
Experimental: Animals at age two months were assigned to three groups: transgenic treated (TG-T, 8 males and 3 females), transgenic vehicle (TG-V, 8 males and 3 females), and wild type (WT, 10 males and 8 females).
Two-months old 5XFAD mice were provided with 0.9% of DMSO solution or VBIT-4 solution (20 mg/kg in 0.9% DMSO) in drinking water replaced with fresh solution three times a week in the first month and thereafter twice a week for additional 3 months.
When the mice reached the age of six months, a two-day radial-arm water maze (RAWM) trial was performed as described previously (Jennifer Alamed, et al, Nature Protocols 1, (2006) 1671-1679) to test the effect of VBIT-4 on learning and memory task. The RAWM containing six swim paths (arms) was used. The arms were extending out from an open central area with an escape platform located at the end of one arm (the goal arm). The goal arm location remained constant for a given mouse. On day 1, mice were trained for 15 trials (spaced over 3 h), with trials alternating between visible and hidden platforms. On day 2, mice were trained for 15 trials with the hidden platform.
Entry into an incorrect arm was scored as an error, and the times spent by the animal to find the platform were recorded. […] To examine the source of differences the post-hoc test of Bonferroni-type was used. […]
The test system of a further assay is dopaminergic neurons. In words: MPTP-induced Parkinson-like disease mouse model, brain immunofluorescence. To be noted: MPTP 20 mg/kg IP 5 days; 20 mg/kg in drinking water from day 3. It is filed as in vivo, C57BL/6N male mice. The procedure:
The Experimental protocols were approved by the Institutional Animal Care and Use Committee. Briefly, C57BL/6N male mice 3-months old were injected IP 3 times/week with vehicle (saline) as control. Parkinsonism was induced by repetitive intraperitoneal injection of 20 mg/kg 1-methyl-4-phenyl-1,2,3,6-tetrahydropyridine hydrochloride (MPTP), Sigma, Israel) in saline, for 5 consecutive days. Group 3 was injected with MPTP and at day 3 of MPTP treatment it was subjected to compound of Formula 3 (VBIT-12) 20 mg/kg in drinking water.
Brains from the scarified mice were analyzed for the pathophysiological features of PD-like mouse models as induced by MPTP and the effect of VBIT-12 on the dopaminergic neurons (DN) was analyzed. Fixed brains were subjected to coronal sections (5 μm thickness) including the Substantia nigra pars compacta (SNc), ventral tegmental area (VTA) and Substantia nigra pars reticular (SNR) (see FIG. 25B) and used for immunofluorescence (IF) (FIG. 25C). Evaluation of dopaminergic neuron degeneration was monitored using anti-Tyrosine hydroxylase (TH) antibodies, which is expressed in dopaminergic neurons.
This decrease was prevented by VBIT-12, as reflected by the increase of the number of cells stained with TH relative to the MPTP-treated group not subjected to VBIT-12.
Sections were also subjected for staining with anti-VDAC1 antibodies (FIG. 25D). […]

The subject of the next assay is SHSY5Y cells. In words: 6-hydroxydopamine-induced cell toxicity, XTT cell viability. Type of assay: cell-based. To be noted: for IC50: Homo sapiens, SH-SY5Y, 24 h, read-out: IC50 (cell viability protection). The method, then: SHSY5Y (obtained from ATCC) were grown at 37° C. under an atmosphere of 95% air and 5% CO2 in DMEM medium supplemented with 10% fetal bovine serum, 2 mM L-glutamine, 1000 U/ml penicillin, and 1 mg/ml streptomycin until 60-70% of confluence. Further, the cells were incubated with increasing concentrations of 6-hydroxydopamine. After 24 hours, and cells viability was assayed using the XTT (2,3-bis-(2-methoxy-4-nitro-5-sulfophenyl)-2H-tetrazolium-5-carboxanilide) method, according to the supplier instructions. […] The 50% decrease in cell survival was obtained at about 50 μM of 6-hydroxydopamine.
Cell viability as assayed following 24 h incubation with different concentrations of 6-hydroxydopamine in the absence (closed squares (▪)) or in the presence of VBIT-12 (15 μM, closed circles (●)) is shown.
Similarly, cells that were incubated with increasing concentrations of VBIT-12 in presence of either 30 or 50 μM of 6-hydroxydopamine that decreased cell viability by […], respectively, remained viable after 24 hours of the incubation. Cells viability is charted in FIG. 24C versus the concentrations of VBIT-12. Closed squares (▪) indicate control group without 6-hydroxydopamine, open circles (◯) indicates cells' viability when exposed to 30 μM of the 6-hydroxydopamine, and closed circles (●) indicate cells viability at 50 μM of the 6-hydroxydopamine.

Where two headings read alike, the source gives them in different places.

What is called IC50 is the point on the concentration scale where inhibition reaches its midpoint.

In assay [1], `O=C(CC(CO)N1CCN(c2ccc(OC(F)(F)F)cc2)CC1)Nc1ccc(Cl)cc1` (racemic) [Formula 1, N-(4-chlorophenyl)-4-hydroxy-3-(4-(4-(trifluoromethoxy)phenyl)-piperazin-1-yl)butanamide] yielded an IC50 of 1800 ± 240 nM. For the same compound, in assay [2], the “RAWM number of errors” value is on record as “better than untreated TG” and the “RAWM total time spent” value is “better than untreated TG”.
On to `O=C(O)CNC(=O)C1(Nc2ccccc2)CCN(Cc2cccc3ccccc23)CC1` [Formula 3], for which, in the assay with dopaminergic neurons, the “VDAC1 levels in dopaminergic neurons (anti-VDAC1 staining)” value is reported as “decreased” and the “dopaminergic neurons in SNc (TH staining)” value is reported as “protected against neuronal loss”. For the same compound, the “protection against 6-hydroxydopamine-induced decreased cell viability” value in the assay on SHSY5Y cells (15 μM VBIT-12, 24 h, different 6-hydroxydopamine concentrations) is “protected against the reduction of cell survival by all 6-hydroxydopamine concentration used”. Besides, in the assay on SHSY5Y cells (30 μM 6-hydroxydopamine), the IC50 is about 1000 nM. For the same compound, the IC50 with SHSY5Y cells (50 μM 6-hydroxydopamine) is about 2000 nM.

The record behind these values is patent US10787423B2, “Piperazine and piperidine derivatives, their synthesis and use thereof in inhibiting VDAC oligomerization, apoptosis and mitochondria dysfunction” (THE NATIONAL INSTITUTE FOR BIOTECHNOLOGY IN THE NEGEV LTD., priority 2015, dated 2020).
